Article PMC11496845, “Preparation, characterization, and in vitro cytogenotoxic evaluation of a novel dimenhydrinate-β-cyclodextrin inclusion complex” (Biomolecules and Biomedicine, 2024)
Marks after values point to notes of the source that are not given here. One block for each compound: values may come before it.

What was measured:
[1] = MTT assay, cell viability; details: male, human, peripheral blood mononuclear cells (PBMCs)
Protocol: (§1) Blood was collected by venipuncture into heparinized vacutainers (BD Vacutainer Systems, Plymouth, UK), stored at room temperature, protected from light, and processed within 2 h. PBMCs were isolated by density gradient centrifugation (400 × g, 30 min) with separation medium (Histopaque® - 1077). After isolation, PBMCs were stained with Trypan blue and counted using a hemocytometer.
(§2) The MTT assay is regarded as a sensitive and reliable colorimetric assay to quantify cellular viability, proliferation, and activation. It is based on the ability of mitochondrial nicotinamide adenine dinucleotide phosphate (NADPH)-dependent cellular oxidoreductase enzymes present in viable cells to reduce soluble tetrazolium salt (3-[4,5-dimethylthiazol-2-yl]-2,5 diphenyl tetrazolium bromide) to insoluble, colored formazan compounds [26].
(§3) The MTT assay was conducted in triplicate in the 96-well plate, with two technical replicates. The seeding density was 6.25 × 10^3 cells per well.
(§4) After 72 h of incubation, the reagent MTT was added to samples for 3 h at 37 ^∘C. DMSO was added to solubilize the formazan crystals followed by further incubation for 30 and 60 min at 37 ^∘C. The optical density was measured at 570 nm using the multiplate reader Multi-Scan FC (Thermo Fisher Scientific, USA). The cell viability was determined according to (5): (5) [drawing 5]

PBMCs [2] = assay: Alkaline comet assay, tail intensity; type: cell-based, human; details: 3 h
Protocol: as §1
The comet assay is a sensitive technique for measuring DNA damage at the level of the individual eukaryotic cell. It is based upon the fact that denatured cleaved DNA fragments, or damaged DNA, migrate out of the cell at a different rate during electrophoresis than undamaged DNA [32]. Damaged DNA creates a “comet tail,” while the undamaged DNA remains within the cell membrane creating the “comet head.” The Comet assay is most commonly run under alkaline conditions to detect single and double-stranded DNA breaks.
PBMCs were isolated as previously described and then cultivated in PB-MAX™ Karyotyping Medium and incubated for 24 h at 37 ^∘C. […] Positive and negative controls were also set up equally. Treated cells were incubated at 37 ^∘C for 3 h and then centrifuged at 800 rpm (120 × g) for 5 min. The supernatant was removed and the cells were subsequently resuspended.
In a tube containing 120 µL of 0.7% LMPA, 80 µL of the sample was added for each tested concentration and controls. Prepared samples were applied to slides precoated with a 1% NMPA and covered with coverslips. After gel polymerization, coverslips were removed and slides were immersed in lysis buffer overnight at 4 ^∘C. Afterward, slides were washed with distilled water and placed into the electrophoresis tank with an electrophoresis solution (200 mM Na2EDTA, 10 M NaOH, and distilled water, pH > 13) for 20 min, followed by 20 min of electrophoresis (1 V/cm). After electrophoresis, slides were gently rinsed in the following sequences: phosphate-buffered saline (PBS) for 5 min, 70% (V/V) ethanol for 5 min, and finally 96% (V/V) ethanol for 15 min.
Prior to the fluorescent microscope analysis (U-MNU2; Olympus BX51, Tokyo, Japan), slides were rehydrated and stained with DAPI (1 µg/mL). DNA damage in treated cells was evaluated using Comet Assay IV software (Instem LSS Ltd., Staffordshire, UK), by measuring tail intensity (TI%), the percent of DNA in the tail of comets. For each concentration, as well as for positive and negative controls, at least 200 comets were analyzed. The Minimum Information for Reporting Comet Assay (MIRCA) protocol was used to report the results.

PBMCs [3] = assay: Cytokinesis block micronucleus cytome (CBMN-cyt) assay; type: cell-based, human; set-up: Total MNi (mean ± SD) / BN cells with MNi (mean ± SD) / NBUDs (mean ± SD) / NPBs (mean ± SD): unit not given here
From the text: DNA damage events were scored specifically in once-divided binucleated (BN) cells and included micronuclei (MNi), a biomarker of chromosome breakage and/or whole chromosome loss, nucleoplasmic bridges (NPBs), a biomarker of DNA misrepair and/or telomere end-fusions, and nuclear buds (NBUDs), a biomarker of elimination of amplified DNA and/or DNA repair complexes. Cytostatic and cytotoxic effects were examined by calculating the nuclear division index (NDI) and nuclear division cytotoxicity index (NDCI) based on the proportion of mono-, bi-, and multinucleated cells and necrotic and/or apoptotic cell ratios, respectively.
Whole blood, 400 µL per each treatment, was cultured in PB-MAX™ Karyotyping Medium for 72 h at 37 ^∘C. […] Untreated cultures were set up as negative controls. Cytochalasin B was added to the final concentration of 4.5 µg/mL to block cytokinesis.
After the cultivation period, cultures were centrifuged for 10 min at 1000 rpm (188 × g) and subjected to hypotonic treatment with 0.56% KCl and centrifuged immediately after the hypotonic addition. Hypotonic treatment was followed by three fixations in ice-cold glacial acetic acid + ethanol (1:3) fresh fixative. The fixed lymphocyte solution was dropped on coded microscope slides. Air-dried slides were stained in 5% Giemsa for 7 min. […] Frequencies of mononuclear, binuclear, trinuclear, and quadrinuclear cells, as well as apoptotic and necrotic cells, were scored in a total number of at least 500 cells. All genotoxicity and cytotoxicity parameters were recognized according to the criteria given by Fenech.

human PBMCs = assay: MTT assay, cell viability; details: human PBMCs, 72 h, 36.36–109.09 ng/mL
Protocol: as §1, §2, §3, §4

[4] = β-CD […] (w/w), 25 mg DMH/mL of water
Protocol: Phase solubility studies were performed according to the Higuchi and Connors’ method [21]. […] Sample solutions were prepared as described by Hindija et al. [22]. […] Each measurement was run in triplicate.
Phase solubility studies, where the change of drug solubility corresponds to CD concentration, were conducted to assess the binding characteristics of the drug and CD and to determine the values of stability constant (Ks), complexation efficacy (CE), and utility number (UCD).
The utility number (UCD) is expressed as: (4) [drawing 4] where mD and mCD are the drug dose and workable amount of CD in mg, respectively, while MWD and MWCD stand for molecular weights of D and CD [22].

HEK293 cells = system: HEK293 cells; set-up: method as in earlier work; details: cited from earlier work
HeLa cells = system: HeLa cells; set-up: method as in PMID 19616959; details: cited from earlier work
LO2 cells = system: LO2 cells; set-up: method as in PMID 26256188; details: cited from earlier work
[5] = system: endothelial (HUVEC) cells; details: cited from earlier work
Calu-3 cells = system: Calu-3 cells; set-up: method as in PMID 18160169; details: cited from earlier work
mouse retinal cells = system: mouse retinal cells; set-up: method as in PMID 33803405; details: cited from earlier work
HCT-116 cancer cells = details: cited from earlier work
MDA-MB-231 cancer cells = details: cited from earlier work

Tail intensity (mean ± SD) (PBMCs [2]; 5-FU 100 µg/mL): 5.93 ± 0.23%
SMILES: O=c1[nH]cc(F)c(=O)[nH]1 [5-FU, 5-fluorouracil]
viability at 72 h, 100 µg/mL [1]: 64.8%
Genotoxic effects in alkaline comet assay (PBMCs [2]): genotoxic effects were observed
BN cells with MNi (mean ± SD) (PBMCs [3]; positive control): 19 ± 6.56
NBUDs (mean ± SD) (PBMCs [3]; positive control): 3.5 ± 1.92
NDCI, nuclear division cytotoxicity index (mean ± SD) (PBMCs [3]; positive control): 1.577 ± 0.01
NDI, nuclear division index (mean ± SD) (PBMCs [3]; positive control): 1.612 ± 0.01
NPBs (mean ± SD) (PBMCs [3]; positive control): 1 ± 0.82
Total MNi (mean ± SD) (PBMCs [3]; positive control): 19.25 ± 6.65

SMILES: CN(C)CCOC(c1ccccc1)c1ccccc1.Cn1c(=O)c2[nH]c(Cl)nc2n(C)c1=O [DMH, 2-benzhydryloxy-N,N-dimethylethanamine; 8-chloro-1,3-dimethyl-7H-purine-2,6-dione]
Difference in cell viability versus negative control (Tukey–Kramer) (human PBMCs): no statistically significant differences
NBUDs (mean ± SD) (PBMCs [3]; DMH 72.73 ng/mL): 0.75 ± 0.96^s
NPBs (mean ± SD) (PBMCs [3]; DMH 72.73 ng/mL): 0.25 ± 0.5
Total MNi (mean ± SD) (PBMCs [3]; DMH 72.73 ng/mL, BN cells): 4.25 ± 0.96^r, s
NBUDs (mean ± SD) (PBMCs [3]; DMH 90.91 ng/mL): 1.75 ± 1.26^s
NPBs (mean ± SD) (PBMCs [3]; DMH 90.91 ng/mL): 0.25 ± 0.5
Total MNi (mean ± SD) (PBMCs [3]; DMH 90.91 ng/mL, BN cells): 6.5 ± 1.92^s
NBUDs (mean ± SD) (PBMCs [3]; DMH 109.09 ng/mL): 1 ± 0.82^s
NPBs (mean ± SD) (PBMCs [3]; DMH 109.09 ng/mL): 0.25 ± 0.5
Total MNi (mean ± SD) (PBMCs [3]; DMH 109.09 ng/mL, BN cells): 6.5 ± 2.38^s
UCD, utility number [4]: 1.156
Effect on cell viability (HEK293 cells): may slightly affect the viability

Tail intensity (mean ± SD) (PBMCs [2]; concentration of β-CD 250 ng/mL): 3.02 ± 1.45%
Tail intensity (mean ± SD) (PBMCs [2]; concentration of β-CD 500 ng/mL): 3.22 ± 1.09%
Tail intensity (mean ± SD) (PBMCs [2]; concentration of β-CD 750 ng/mL): 3.25 ± 1.02%
Tail intensity (mean ± SD) (PBMCs [2]; concentration of β-CD 1000 ng/mL): 3.42 ± 1.08%
SMILES: OC[C@H]1O[C@@H]2O[C@H]3[C@H](O)[C@@H](O)[C@@H](O[C@H]4[C@H](O)[C@@H](O)[C@@H](O[C@H]5[C@H](O)[C@@H](O)[C@@H](O[C@H]6[C@H](O)[C@@H](O)[C@@H](O[C@H]7[C@H](O)[C@@H](O)[C@@H](O[C@H]8[C@H](O)[C@@H](O)[C@@H](O[C@H]1[C@H](O)[C@H]2O)O[C@@H]8CO)O[C@@H]7CO)O[C@@H]6CO)O[C@@H]5CO)O[C@@H]4CO)O[C@@H]3CO [β-CD, β-cyclodextrin]
viability at 72 h, 1000 ng/mL [1]: 90.3%
Effect on cell viability (HeLa cells): does not affect cell viability
Effect on cell viability (LO2 cells): does not affect cell viability
Effect on cell viability [5]: does not affect cell viability
Effect on cell viability (Calu-3 cells): does not affect cell viability
Effect on cell viability (mouse retinal cells): does not affect cell viability
Effect on cell viability (HCT-116 cancer cells): does not affect cell viability
Effect on cell viability (MDA-MB-231 cancer cells): does not affect cell viability
